Assay results published in ChEMBL document CHEMBL1126328, “The rotenoid core structure: Modifications to define the requirements of the toxophore” (Bioorg Med Chem Lett, 1992).

Tests used:
[1] = Inhibition of NADH dehydrogenase in blowfly flight-muscle submitochondrial preparation; assay type: tissue-based, Muscle tissue
Phormia regina = experiment: Relative activity against blowfly flight muscle submitochondrial NADH dehydrogenase compared to rotenone; details: Muscle tissue
[2] = Inhibition of NADH dehydrogenase in blowfly flight-muscle submitochondrial preparation experiment I; assay type: tissue-based, Phormia regina, Muscle tissue
[3] = Inhibition of NADH dehydrogenase in blowfly flight-muscle submitochondrial preparation experiment II; design: species or system Phormia regina, Muscle tissue

IC50 [1] | Relative activity (Phormia regina) | IC50 [2] | IC50 [3] | SMILES
5 nM | 30% | – | – | COc1cc2c(cc1OC)[C@H]1C(=O)c3ccc4c(c3O[C@@H]1CO2)Cc1cc(C(C)C)oc1C4
25 nM | 1% | – | – | COc1cc2c(cc1OC)[C@@H]1[C@H](O)c3ccc4c(c3O[C@@H]1CO2)Cc1cc(C(C)C)oc1C4
2 nM | 75% | – | – | COc1cc2c(cc1OC)[C@@H]1C(=O)c3ccc4c(c3O[C@@H]1CO2)Cc1cc(C(C)C)oc1C4
10000 nM | 0.0025% | – | – | O=C1c2ccccc2O[C@@H]2CSc3ccccc3[C@H]12
8000 nM | 0.0031% | – | – | COc1ccc2c(c1)O[C@@H]1COc3ccccc3[C@@H]1C2=O
– | 100% | 0.25 nM | 1.5 nM | C=C(C)[C@H]1CC2=C(Cc3ccc4c(c3C2)O[C@@H]2COc3cc(OC)c(OC)cc3[C@@H]2C4=O)O1
5000 nM | 0.005% | – | – | O=C1c2ccccc2O[C@@H]2COc3ccccc3[C@H]12
200 nM | 0.125% | – | – | COc1cc2c(cc1OC)[C@@H]1C(=O)c3ccccc3O[C@@H]1CO2
300 nM | 0.083% | – | – | COc1cc2c(cc1OC)[C@@H]1C(=O)c3ccccc3O[C@@H]1CS2
400 nM | 0.063% | – | – | COc1cc2c(cc1OC)[C@H]1[C@H](O)c3ccc4c(c3O[C@@H]1CO2)Cc1cc(C(C)C)oc1C4
0.5 nM | 50% | – | – | C=C(C)[C@H]1CC2=C(Cc3ccc4c(c3C2)O[C@@H]2COc3cc(OC)c(OC)cc3[C@H]2C4=O)O1

SMILES | IC50 [1] | Relative activity (Phormia regina) | IC50 [2] | IC50 [3]
COc1ccc2c(c1)O[C@@H]1COc3cc(OC)c(OC)cc3[C@@H]1C2=O [MUNDOSERONE] | 15 nM | 1.67% | – | –
